Laboratory results reported in patent publication US20260028410A1, “TREATMENT OF GRAFT VERSUS HOST DISEASES USING ANTI-CD122 ANTIBODY” (FORTE SUBSIDIARY, INC., priority 2023, published 2026).

How the values were obtained:
[1] = tested on: human T and NK cell-mediated aGvHD (xenograft GvHD mouse model); assay: Acute GvHD xenograft mouse model, single vs combination therapy with Antibody 1 (Example 2), survival; type: in vivo, NCG-hIL-15 mice transplanted with human PBMCs; details: ruxolitinib 60 mpk twice-daily oral, Antibody 1 75 mpk once-daily IP, D5-D18
Method: (§1) A xenograft GvHD mouse model was utilized to study human T and NK cell-mediated aGvHD and the therapeutic effects of anti-CD122 antibody treatment in single or combination therapy approaches. Female NCG-hIL-15 mice were irradiated at a dosage of 100 cGy on Day 1 of the protocol and human peripheral blood mononuclear cells (PBMCs) were transplanted via injection at a dosage of 1×10^7 cells/200 μL/mice via IV administration into the irradiated mice according to the same xenograft GvHD mouse model design as in Example 1.
Treatment according to 3 different grouping of animals was begun on Day 5 following transplant, as shown in the study design of FIG. 3. Groups of 10 mice were used for each test category. A single treatment group, Group #1, (n=10) received ruxolitinib (at a dosage of 60 mpk) twice-daily by oral administration beginning on Day 5 and ending on Day 18. Days of treatment were D5, D6, D7, D8, D9, D10, D11, D12, D13, D14, D15, D16, D17, and D18. A combination therapy group, Group #2, (n=10) received ruxolitinib (at a dosage of 60 mpk) twice-daily by oral administration beginning on Day 5 and ending on Day 18. Days of treatment using ruxolitinib in Group #2 were D5, D6, D7, D8, D9, D10, D11, D12, D13, D14, D15, D16, D17, and D18. Group #2 animals separately received treatment with Antibody 1 (anti-CD122 antibody as described herein) at a dosage of 75 mpk once-daily by IP administration. Days of treatment using Antibody 1 in Group #2 were D5, D6, D7, D8, D9, D10, D11, D12, D13, D14, D15, D16, D17, and D18. A vehicle group, Group #3, (n=10) served as a negative control with vehicle-only administered following transplant received twice daily oral placebo (vehicle only) beginning on Day 5 and ending on Day 18. Days of oral placebo treatment were D5, D6, D7, D8, D9, D10, D11, D12, D13, D14, D15, D16, D17, and D18. […]
(§2) Day 18 was the end of study day for all treatment groups. Animals from all treatment groups were assessed daily beginning on Day 1 and ending on Day 18 for survival following transplant. […]

[2] = tested on: human T and NK cell-mediated aGvHD (xenograft GvHD mouse model); assay: Acute GvHD xenograft mouse model, dose-ranging of Antibody 1 (Example 1), survival; type: in vivo, NCG-hIL-15 mice transplanted with human PBMCs; details: Day 14; 60 mcg each twice daily oral D5-D14; n=10
Method: A xenograft GvHD mouse model was utilized to study human T and NK cell-mediated aGvHD and the therapeutic effects of anti-CD122 antibody treatment therein. Female NCG-hIL-15 mice were irradiated at a dosage of 100 cGy on Day 1 of the protocol and human peripheral blood mononuclear cells (PBMCs) were transplanted via injection at a dosage of 1×10^7 cells/200 μL/mice via IV administration into the irradiated mice. PBMCs are immune cells that originate in the bone marrow and are secreted into the peripheral circulation forming critical components of the immune system. PBMCs are involved in humoral and cell-mediated immune function. […] Groups of 10 mice were used for each test category. A vehicle group (n=10) served as a negative control with no treatment administered (only a combination of vehicle treatments) following transplant. A positive control group (n=10) of mice treated with 60 mcg each of ruxolitinib twice daily by oral administration was included in the study design. Ruxolitinib-treated animals were treated via oral administration of ruxolitinib twice daily on D5, D6, D7, D8, D9, D10, D11, D12, D13, and D14. Three groups of Antibody 1 treated animals (n=10 for each group) were tested using a) 75 milligram per kilogram of body weight (mpk) of antibody, b) 125 mpk of antibody, and c) 175 mpk of antibody, respectively. […]

[3] = tested on: human T and NK cell-mediated aGvHD (xenograft GvHD mouse model); assay: Acute GvHD xenograft mouse model, single vs combination therapy with Antibody 2 or Antibody 3 (Example 5), survival; type: in vivo, NCG-hIL-15 mice transplanted with human PBMCs
Method: as §1
Treatment according to 3 different grouping of animals was begun on Day 5 following transplant, as shown in the study design of FIG. 5. Groups of a sufficient number of mice were used for each test category in order to evaluate a significant difference between test groups. A single treatment group, Group #1, received ruxolitinib (at a dosage of 60 mpk) twice-daily by oral administration beginning on Day 5 and ending on Day 18. Days of treatment are D5, D6, D7, D8, D9, D10, D11, D12, D13, D14, D15, D16, D17, and D18. A combination therapy group, Group #2, received ruxolitinib (at a dosage of 60 mpk) twice-daily by oral administration beginning on Day 5 and ending on Day 18. Days of treatment using ruxolitinib in Group #2 were D5, D6, D7, D8, D9, D10, D1I, D12, D13, D14, D15, D16, D17, and D18. Group #2 animals separately receive anti-CD122 antibody therapy (at a dosage of 75 mpk) once-daily by IP administration. Days of treatment using anti-CD122 antibody in Group #2 were D5, D6, D7, D8, D9, D10, D11, D12, D13, D14, D15, D16, D17, and D18. A vehicle group, Group #3, served as a negative control with vehicle-only administered following transplant received twice daily oral placebo (vehicle only) beginning on Day 5 and ending on Day 18. Days of oral placebo treatment were D5, D6, D7, D8, D9, D10, D11, D12, D13, D14, D15, D16, D17, and D18. […]
as §2

[4] = target: high-affinity heterotrimer IL-αβγ receptor; details: ligand affinity for IL-αβγ receptor combinations; cited from earlier work
[5] = target: T1, Intermediate-affinity heterodimeric IL-βγ receptor (Homo sapiens, UniProt P14784+P31785); details: ligand affinity for IL-βγ receptor (CD122/CD132); cited from earlier work
T1 sequence (P14784 27-551): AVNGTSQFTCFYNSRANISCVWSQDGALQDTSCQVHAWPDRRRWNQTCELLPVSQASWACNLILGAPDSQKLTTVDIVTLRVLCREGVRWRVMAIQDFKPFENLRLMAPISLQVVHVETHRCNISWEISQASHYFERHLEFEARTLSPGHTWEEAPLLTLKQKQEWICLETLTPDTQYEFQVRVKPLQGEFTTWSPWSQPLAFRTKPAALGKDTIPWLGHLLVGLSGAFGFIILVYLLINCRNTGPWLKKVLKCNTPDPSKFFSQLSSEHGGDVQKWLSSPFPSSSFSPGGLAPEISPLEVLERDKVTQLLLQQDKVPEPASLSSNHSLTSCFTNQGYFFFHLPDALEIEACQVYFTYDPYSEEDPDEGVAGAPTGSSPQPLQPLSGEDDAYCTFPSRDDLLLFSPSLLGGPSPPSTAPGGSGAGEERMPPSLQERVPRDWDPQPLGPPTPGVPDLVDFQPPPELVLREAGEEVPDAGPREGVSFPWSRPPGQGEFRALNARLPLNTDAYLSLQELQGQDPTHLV
T1 sequence (P31785 23-369): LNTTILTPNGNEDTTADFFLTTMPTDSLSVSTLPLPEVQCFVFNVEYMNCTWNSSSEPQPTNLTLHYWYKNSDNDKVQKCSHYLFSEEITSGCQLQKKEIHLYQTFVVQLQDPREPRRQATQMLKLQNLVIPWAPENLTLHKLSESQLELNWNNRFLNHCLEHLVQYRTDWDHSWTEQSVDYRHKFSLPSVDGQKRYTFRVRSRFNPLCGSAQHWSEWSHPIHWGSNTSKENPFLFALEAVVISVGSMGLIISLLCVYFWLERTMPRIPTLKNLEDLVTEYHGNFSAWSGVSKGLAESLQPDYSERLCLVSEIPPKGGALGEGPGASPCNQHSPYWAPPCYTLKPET

Compound	survival rate at the end of the study ([1]; Day 18, n=10) [%]	Average survival time ([1]; up to Day 18, Mean ± SD) [days]	Median survival ([1]; up to Day 18) [days]	survival at study conclusion [2] [%]	survival on Day 18 ([3]; Day 18, ruxolitinib 60 mpk twice-daily oral, anti-CD122 antibody 75 mpk once-daily IP, D5-D18, n=10) [%]	Median survival ([3]; aGvHD xenograft mice, treatment Day 5 to Day 18 (ruxolitinib 60 mpk twice-daily oral; anti-CD122 antibody 75 mpk once-daily IP), followed to Day 18) [days]	Average survival time ([3]; aGvHD xenograft mice, treatment Day 5 to Day 18 (ruxolitinib 60 mpk twice-daily oral; anti-CD122 antibody 75 mpk once-daily IP), followed to Day 18, Mean ± SD) [days]	Kd [4] [nM]	Kd [5] [nM]
N#CC[C@H](C1CCCC1)n1cc(-c2ncnc3[nH]ccc23)cn1 [ruxolitinib]	30	16.3 ± 3.4	17.5	60	0	14	13.20 ± 0.93		
IL15: cytokine interleukin 15								~0.01	~1
